Key:
[1] = Clearance in human liver microsomes at 1 uM after 20 mins in presence of NADPH; assay type: ADME
MDR1 (human) = assay: Apparent permeability of the compound across pig LLC-PK1 cells expressing human MDR1; assay type: ADME, cell-based, Sus scrofa

CLhep predicted at 1 µM [1] [mL/min/kg] | Papp (MDR1 (human)) [×10⁻⁶ cm/s] | SMILES
15 | 4.7 | NC1=N[C@@]2(CO1)c1cc(-c3cncc(Cl)c3)ccc1O[C@H]1COCC[C@@H]12
13 | 14 | NC1=N[C@@]2(CO1)c1cc(-c3cncc(Cl)c3)ccc1O[C@@H]1COCC[C@H]12
6 | 10 | NC1=N[C@@]2(CO1)c1cc(-c3cccnc3F)ccc1O[C@@H]1COCC[C@H]12
9 | 15 | NC1=N[C@@]2(CO1)c1cc(-c3cncc(F)c3)ccc1O[C@@H]1COCC[C@H]12
8 | 11 | N#Cc1cccc(-c2ccc3c(c2)[C@@]2(COC(N)=N2)[C@@H]2CCOC[C@H]2O3)c1
10 | 11 | NC1=N[C@@]2(CO1)c1cc(-c3cc(F)cc(Cl)c3)ccc1O[C@@H]1COCC[C@H]12
15 | 10 | C[C@]12COCC[C@@H]1[C@]1(COC(N)=N1)c1cc(-c3cncc(Cl)c3)ccc1O2 (racemic)

— ChEMBL document CHEMBL3259748, “Synthesis, characterization, and PK/PD studies of a series of spirocyclic pyranochromene BACE1 inhibitors” (Bioorg Med Chem Lett, 2014)
